2 compounds from patent publication US20230220443A1, “CHARACTERIZATION OF S-ADENOSYL-L-METHIONINE-CONSUMING ENZYMES WITH 1-STEP EZ-MTASE: A UNIVERSAL COUPLED-ASSAY” (ALBERT EINSTEIN COLLEGE OF MEDICINE, priority 2017, published 2023) can be followed below.

The target in one assay is T1, CePRMT5 (Caenorhabditis elegans, UniProt P46580).
T1 construct: made in house
T1 sequence (P46580 1-734): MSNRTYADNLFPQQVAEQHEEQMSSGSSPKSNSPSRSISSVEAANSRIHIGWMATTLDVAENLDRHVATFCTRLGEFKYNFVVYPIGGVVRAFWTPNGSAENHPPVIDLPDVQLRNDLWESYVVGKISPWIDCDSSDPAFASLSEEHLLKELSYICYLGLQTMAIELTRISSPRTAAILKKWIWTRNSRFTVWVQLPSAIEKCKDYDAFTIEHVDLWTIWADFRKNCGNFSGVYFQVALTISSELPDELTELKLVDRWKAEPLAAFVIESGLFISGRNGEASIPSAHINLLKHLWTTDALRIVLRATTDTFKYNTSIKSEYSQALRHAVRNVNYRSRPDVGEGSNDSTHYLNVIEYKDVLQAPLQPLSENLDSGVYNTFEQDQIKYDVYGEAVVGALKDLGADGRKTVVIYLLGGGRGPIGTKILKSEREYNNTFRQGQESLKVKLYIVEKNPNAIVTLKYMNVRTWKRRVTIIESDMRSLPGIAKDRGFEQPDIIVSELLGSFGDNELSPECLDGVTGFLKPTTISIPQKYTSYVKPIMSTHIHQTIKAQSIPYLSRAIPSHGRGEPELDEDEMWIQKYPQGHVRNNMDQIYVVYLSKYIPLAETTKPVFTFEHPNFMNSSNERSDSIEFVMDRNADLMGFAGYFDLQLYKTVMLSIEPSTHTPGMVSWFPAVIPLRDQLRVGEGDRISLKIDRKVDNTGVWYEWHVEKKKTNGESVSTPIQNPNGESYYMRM
In words: 1-Step EZ-MTase UV-based coupled assay, CePRMT5 kinetics. In kind it is biochemical. As to conditions: for Km / kcat: pH=7.60, co-substrate saturating, 4 μM TM0936, 263 nm (282 nm for 8-aza-SAM); for catalytic efficiency: saturating H4 peptide. As for the experimental part: The 250-μL reaction mixtures from a same row contained 50 mM phosphate buffer pH=7.60, 1 mM βME, 10% glycerol, 4 μM coupling deaminase TM0936, 300 nM CePRMT5 and various peptide concentrations (5-180 μM; in the first well, peptide acceptor was omitted to account for background signal—natural decomposition of SAM). The methyltransfer reactions started upon addition of SAM (25 μM saturating final concentration) and absorbance was recorded.
The 250-μL reaction mixtures from a same row contained 50 mM phosphate buffer pH=7.60, 1 mM βME, 10% glycerol, 4 μM coupling deaminase TM0936, 300 nM CePRMT5 and various SAM concentrations (2.35-47.0 μM). […] Initial rates were first corrected for background signal, then plotted against SAM concentrations and fitted to the Morrison kinetic model to yield corresponding kinetic parameters.
(§1) Kinetic behavior for 8-aza-SAM against MTases (acceptor sat.)—Briefly, kinetic parameters were determined at 20° C. in a UV-Star 96-well flat bottom plate (Greiner Bio-One, #655801) by continuous monitoring of absorbance at 282 nm using a SpectraMax M5 instrument (Molecular Devices). As for SAM experiments, the measurements consisted of two experimental subsets: MTase reactions (both 8-aza-SAM and acceptor added) and MTase blanks (8-aza-SAM was added without acceptor to account for natural 8-aza-SAM decomposition). The 250-μL (60-μL) reaction mixtures from a same row contained 50 mM phosphate buffer pH=7.60 (7.80), 1 mM βME, 10% glycerol (5% glycerol, 100 μM MgCl2), 4 μM coupling deaminase TM0936, either 1.5 μM CePRMT5 or 402 nM TbPRMT7 (or 610 nM GsSDMT) and various 8-aza-SAM concentrations. […] Initial rates were first corrected for background signal, then plotted against 8-aza-SAM concentrations and fitted to the Michaelis-Menten equation to yield corresponding kinetic parameters.

A further assay addresses T2, GsSDMT (Galdieria sulphuraria, UniProt M2XPA0).
T2 sequence (M2XPA0 2-297): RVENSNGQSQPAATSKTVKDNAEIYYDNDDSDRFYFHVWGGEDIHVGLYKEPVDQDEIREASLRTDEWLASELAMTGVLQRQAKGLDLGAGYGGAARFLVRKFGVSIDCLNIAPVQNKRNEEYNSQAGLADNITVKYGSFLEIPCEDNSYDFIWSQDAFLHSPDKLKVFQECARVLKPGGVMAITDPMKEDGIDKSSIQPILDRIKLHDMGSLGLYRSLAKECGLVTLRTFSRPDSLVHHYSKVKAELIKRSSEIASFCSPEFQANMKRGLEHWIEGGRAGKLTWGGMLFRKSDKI
Kind of assay: 1-Step EZ-MTase UV-based coupled assay, GsSDMT kinetics. In kind it is biochemical. As to conditions: for Km / kcat: pH=7.80, co-substrate saturating. As for the experimental part: Kinetic behavior for sarcosine against GsSDMT (SAM sat.)—Experiments were conducted following matching CePRMT5 protocol above. Briefly, the 100-μL mixtures from a same row contained 100 mM phosphate buffer pH=7.80, 1 mM βME, 5% glycerol, 100 μM MgCl2, 4 μM coupling deaminase TM0936, 976 nM GsSDMT and various sarcosine concentrations (0.5-12.5 mM; in the first well, sarcosine was omitted to account for background signal—natural decomposition of SAM). Reactions started upon addition of SAM (750 μM saturating final concentration), 60-μL volumes were transferred onto UV plate and absorbance was recorded. Initial rates were first corrected for background signal, and then plotted against sarcosine concentrations. Fit to the Michaelis-Menten equation provided corresponding kinetic parameters.
Kinetic behavior for SAM against GsSDMT (sarcosine sat.)—Experiments were conducted following matching CePRMT5 protocol above. Briefly, the measurements consisted of two experimental subsets: MTase reactions (both SAM and sarcosine added) and MTase blanks (SAM was added without sarcosine to account for natural SAM decomposition). The 100-μL reaction mixtures from a same row contained 100 mM phosphate buffer pH=7.80, 1 mM βME, 5% glycerol, 100 μM MgCl2, 4 μM coupling deaminase TM0936, 195 nM GsSDMT and various SAM concentrations (49.9-750.2 μM). Reactions started upon addition of either sarcosine (10 mM saturating final concentration; MTase reactions) or water (MTase blanks), 60-μL volumes were transferred onto UV plate and absorbance was recorded at 263 nm. Initial rates were first corrected for background signal, and then plotted against SAM concentrations. Fit to the Michaelis-Menten equation provided corresponding kinetic parameters.
as §1

By Km is commonly meant the concentration of substrate that gives half-maximal velocity. Broadly, the kcat is the number of substrate molecules converted per active site and unit of time at saturation.

As for `C[S+](CC[C@H](N)C(=O)O)C[C@H]1O[C@@H](n2cnc3c(N)ncnc32)[C@H](O)[C@@H]1O` (stereo partly drawn) [SAM, S-adenosyl-L-methionine], on CePRMT5, the Km was 6.8 ± 0.3 µM, the kcat worked out at 0.00886 ± 0.00014 s⁻¹ and the catalytic efficiency stood at 1300 M⁻¹ s⁻¹. On GsSDMT, the Km is 95 ± 18 µM and the turnover number (kcat) amounted to 0.7 ± 0.033 s⁻¹.
Turning to `C[S+](CC[C@H](N)C(=O)O)C[C@H]1O[C@@H](n2nnc3c(N)ncnc32)[C@H](O)[C@@H]1O` (stereo partly drawn) [8-aza-SAM, S-8-aza-adenosyl-L-methionine], at CePRMT5 (282 nm, pH=7.60, H4(1-20) 104 μM), the “substrate inhibition constant (Ks / Kf)” value worked out at 67 ± 42 µM. Moreover, at CePRMT5, the Km was determined as 35 ± 19 µM, the kcat is 0.00417 ± 0.0017 s⁻¹ and the catalytic efficiency was found to be 120 M⁻¹ s⁻¹. In addition, at GsSDMT, the “substrate inhibition (inhibitory behavior of the analog)” value was “not observed”, the Km came out at 443 ± 33 µM and the kcat stood at 1.35 ± 0.05 s⁻¹.
